This is an account of results in the METLIN SMRT retention time set (Domingo-Almenara et al. 2019).

The nature of the series: gradient 5% acetonitrile 3 min, to 50% in 2 min, to 85% in 15 min, held 3 min, 100 µL/min. As to conditions: column: Zorbax Extend-C18 2.1 x 50 mm; eluents: water / acetonitrile, 0.1% formic acid. Summed up: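 Retention times come from adduct peaks that were picked computationally and then checked by hand. The standards, pure and pooled in mixtures of ~100 molecules, were run on a Zorbax Extend-C18 column (2.1 × 50 mm, 1.8 μm) at 100 μL/min with water and acetonitrile, each with 0.1% formic acid. Detection was by quadrupole time-of-flight mass spectrometry in positive and negative ionization mode, with a dead volume of 40 μL and a dwell volume of 900 μL.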
Compound `O=C1CCCc2cc(S(=O)(=O)N3CCC(C(=O)NCc4ccco4)CC3)ccc2N1` registered an RP-LC retention time of 678 s. As to `CC(NC(=O)c1ccco1)c1nc(-c2ccc(N3CCOCC3)cc2)no1` (stereo not given), the RP-LC retention time is 757 s.

As for `COc1ccc(Cl)cc1CC1C(=O)Nc2ccccc21` (stereo not given), the RP-LC retention time was found to be 921 s. `Cn1ncc(N2CCC(C(=O)NC3CCCC3)C2)cc1=O` (stereo not given) yielded an RP-LC retention time of 630 s. To `O=C1CC(C(=O)N2CCc3ccccc3C2)CN1CCc1c[nH]c2ccc(Cl)cc12` (stereo not given) belongs 879 s. For `Cc1ccc(NS(=O)(=O)c2cn(C)c3ncccc23)cc1` the value was 774 s.

Turning to `CC(=O)Oc1cc2c(C(=O)NCC3CCCO3)c(C)oc2c2ccccc12` (stereo not given), the RP-LC retention time amounted to 809 s. `Cc1ccc(Cn2nnc(C(=O)N3CCSCC3)c2-n2cccc2)cc1` displayed an RP-LC retention time of 956 s. `Cc1ccc(NC(=O)Nc2cccc(-c3ccc(N4CCOCC4)nn3)c2)cc1F` showed an RP-LC retention time of 739 s. In the case of `O=C(Nc1ccc(F)cc1F)N1CCC(n2cnc3cc(Cl)ccc3c2=O)CC1`, the RP-LC retention time worked out at 806 s.

In the case of `COc1ccc(OC)c(NC(=O)N2CCC(N3CCN(Cc4ccc(F)cc4)C(=O)C3=O)CC2)c1`, the RP-LC retention time came out at 773 s. Consider `Cc1noc([C@@H]2CC(F)(F)CN2C(=O)c2coc(C)n2)n1`, for which the RP-LC retention time stood at 694 s. For `O=C(NCC1CC(=O)N(Cc2ccc(F)cc2)C1)Nc1cccs1` (stereo not given) the value was 668 s. To `Cc1noc(CNC(=O)C2CCN(C(=O)Nc3ccccc3C(F)(F)F)CC2)n1` belongs 647 s; to `CCOC(=O)C(C)NC(=O)N1CCN(c2nc3ccccc3nc2C(F)(F)F)CC1` (stereo not given), 921 s. The compound `COCCCNC(=O)N1CCN(Cc2nc3cc(C(=O)N(C)C)ccc3n2C)CC1` returned an RP-LC retention time of 560 s. Consider `Cc1cccc(OCC(=O)Nc2c(C(=O)N3CCN(c4ccccn4)CC3)oc3ccccc23)c1`, for which the RP-LC retention time was 800 s. The compound `O=C(Nc1nnc(Cc2cccs2)o1)c1cc2cc([N+](=O)[O-])ccc2s1` registered an RP-LC retention time of 858 s. As for `CCOC(=O)C1CCCN(c2nc(Nc3ccc(F)cc3)c3n[nH]nc3n2)C1` (stereo not given), the RP-LC retention time is 824 s. For `O=C(Cn1ccc2ccn(CC3CC3)c2c1=O)N1CCOCC1`, the RP-LC retention time was 682 s.

`O=C(NCCN1CCOCC1)c1ccc2nc(Cc3ccccc3)oc2c1`: the RP-LC retention time was found to be 631 s. Consider `Cc1cc(N2CCN(S(=O)(=O)c3ccc(F)c(F)c3)CC2)nc(N2CCOCC2)n1`, for which the RP-LC retention time was 664 s.

In turn, `Cc1ccc(-n2cc(C3=CCN(CC(=O)N4CCN(c5ccccn5)CC4)CC3)cn2)cc1C` came in with an RP-LC retention time of 596 s.

Regarding `COc1ccc2c(CCNC(=O)C(C)C)c[nH]c2c1`, the RP-LC retention time was determined as 706 s. To `O=C(Nc1ccccc1)N1CCC2(CC1)CC(N1CCOCC1)CCO2` (stereo not given) belongs 583 s; to `CCOc1cc(CNc2ccc3[nH]c(=O)[nH]c3c2)cc(Cl)c1OCC`, 700 s; to `CCOC(=O)C1CCN([C@H]2CS(=O)(=O)C[C@@H]2S(=O)(=O)c2ccc(F)cc2)CC1`, 889 s. To `CC(C)c1ccc(N2C(=O)CN(S(C)(=O)=O)CC2(C)C(=O)NCc2ccccc2)cc1` (stereo not given) belongs 860 s; to `CCc1ccc(N2CC(c3noc(-c4ccc(F)cc4)n3)CC2=O)cc1` (stereo not given), 1100 s; to `O=C(CCc1conc1-c1ccc(F)cc1)NC1CCCCC1`, 927 s. `CCc1ccccc1NC(=O)N1CCC2(CC1)NC(=O)c1cc(F)ccc1N2C` displayed an RP-LC retention time of 791 s. Compound `CCN1CN=C(Nc2nc(C)c3cc(OC)ccc3n2)NC1` had an RP-LC retention time of 622 s. Take `Cc1ccc(S(=O)(=O)N2CCC3(CC2)NCCCN=C3NC2CCCC2)cc1Cl`: the RP-LC retention time was found to be 814 s. For `CC1CCCN(c2ccc(-c3noc(CN4CCC5(CC4)OCCO5)n3)cn2)C1` (stereo not given) the value was 680 s. With `CC(C)n1c(N2CCN(C(=O)c3ccc(F)c(F)c3)CC2)cc(=O)n(C(C)C)c1=O`, the RP-LC retention time stood at 867 s. Take `CCN(C(=O)c1cccc(OC)c1)c1nc(-c2ccccc2)cs1`: the RP-LC retention time came to 1270 s. To `Cn1c(=O)c2c(ncn2CC(=O)N2CCC(CCOc3ccc(F)cc3)C2)n(C)c1=O` (stereo not given) belongs 748 s. As to `CC(=O)Nc1cccc(N2CC(C(=O)NC3CCCCCCC3)CC2=O)c1` (stereo not given), the RP-LC retention time turned out to be 731 s. `COC(=O)c1c(NCc2ccc3c(c2)OCO3)c2ccc(F)cc2[nH]c1=O` returned an RP-LC retention time of 734 s. To `Cc1cc(N2CCN(C)CC2)nc2ccc(NC(=O)Nc3ccccc3)cc12` belongs 564 s. For `COc1ccccc1NC(=O)C1CCN(S(C)(=O)=O)c2ccccc2O1` (stereo not given) the value was 916 s.

Compound `Cc1ccc(NC(=O)N2CCC(n3cnc4cc(Cl)ccc4c3=O)CC2)cc1` came in with an RP-LC retention time of 856 s. `Cc1cn(C)nc1C(=O)Nc1nnc(-c2ccco2)o1` had an RP-LC retention time of 622 s. For `Cc1ccc(-c2nnc(N3CCC(C(=O)NC(C)c4ccccc4)CC3)o2)cc1` (stereo not given) the value was 886 s. In turn, `CC1(C(=O)NCc2ccc(F)cc2)CCN(C(=O)Nc2ccccc2Br)CC1` had an RP-LC retention time of 871 s. For `CCCNC(=O)C1c2ccccc2CCN1C(=O)C1CC1` (stereo not given) the value was 725 s; for `Cc1ccc(S(=O)(=O)N2CCC(n3cnnc3C)CC2)c(C)c1`, 713 s.

Take `Cc1cc2nn(CC(=O)NC(C)C)c(=O)n2c(-c2ccc(C(F)(F)F)cc2)n1`: the RP-LC retention time was determined as 576 s. For `c1csc(-c2nc(-c3ccc4c(c3)ncn4CCN3CCCCC3)no2)c1` the value was 626 s; for `CC1(C)C(=O)N(CC(=O)Nc2ccc(F)cc2)c2ccccc21`, 866 s; for `O=C(NCCCN1CCCC1=O)c1ccc2ncnc(N3CCCC3)c2c1`, 570 s. To `CCOC(=O)c1c(C)c(CCC(=O)NCc2ccc3c(c2)OCO3)n(C)c1C` belongs 836 s; to `COC(=O)C1=CN(c2ccc(Cl)cc2)c2ccc(F)cc2S1(=O)=O`, 894 s; to `CC1=NS(=O)(=O)N(Cc2ccccc2)C=C1C(=O)OCc1ccc(F)c(F)c1`, 1100 s.

`COc1cc2oc(=O)cc(C)c2cc1[N+](=O)[O-]` yielded an RP-LC retention time of 764 s. To `Cc1cc(C)cc(NC(=O)Cn2ccc3ccn(C)c3c2=O)c1` belongs 829 s; to `Cc1ccc(CNC(=O)Nc2cc3c(cc2N2CCCCC2)n(C)c(=O)n3C)cc1`, 610 s; to `CCOc1cc(C(=O)NC(C(=O)Nc2nc3ccccc3[nH]2)C(C)C)cc(OCC)c1OCC` (stereo not given), 824 s.

In turn, `COC(=O)c1cccc(NC(=O)N2C[C@@H]3C[C@H]2C[C@@H]3NC(=O)c2ccccc2)c1` gave an RP-LC retention time of 736 s. Take `CCn1c(=O)sc2cc(S(=O)(=O)N3CCC(C(=O)NC4CCCc5ccccc54)CC3)ccc21` (stereo not given): the RP-LC retention time amounted to 957 s.

Regarding `CCC(C)NC(=O)Cn1nc2c(Oc3ccccc3)nc3ccccc3n2c1=O` (stereo not given), the RP-LC retention time was found to be 895 s.

Compound `CCOC(=O)c1c(S(=O)(=O)N2CCC(C(=O)Nc3cccc(Cl)c3)CC2)c(C)n(C)c1C` came in with an RP-LC retention time of 932 s. For `COc1ccc(C(=O)N(CN2CCCC2=O)c2nccs2)cc1OC` the value was 647 s. For `Cc1ccc(Cn2nc3c(S(=O)(=O)N4CCCCC4)cccn3c2=O)cc1` the value was 925 s; for `CCOC(=O)c1nc(Nc2ccccc2Cl)c2ccccc2n1`, 913 s. To `Cc1ccc(-n2cc(C3=CCN(CC(=O)NCc4cccs4)CC3)cn2)cc1C` belongs 735 s. With `O=C(O)C1CCN(c2nc3ccc(-c4cccnc4)nc3s2)CC1`, the RP-LC retention time stood at 610 s. Consider `COc1nn(C)cc1C(=O)NCC(=O)NCCOc1ccc(F)cc1`, for which the RP-LC retention time is 626 s. Turning to `Cn1cccc1-c1noc(C2CCN(C(=O)c3ccoc3)C2)n1` (stereo not given), the RP-LC retention time came to 784 s. For `CCN(CC)C(=O)Cn1c(C2CC(=O)N(C3CCCC3)C2)nc2ccccc21` (stereo not given) the value was 657 s; for `Cc1cc(=O)n(CC(=O)Nc2ccc3c(c2)OCCO3)c(N2CCc3ccccc3C2)n1`, 732 s; for `COc1ccc(NC(=O)CCc2cccc3[nH]ccc23)c(C)c1`, 805 s. For `Cc1cc(C)nc(Nc2nc(-c3ccccc3)c3ccccc3n2)n1` the value was 709 s; for `COc1ccc(C(=O)N2CCN(S(=O)(=O)c3cc4c5c(c3)CCC(=O)N5CCC4)CC2)cc1`, 779 s; for `COc1ccccc1NC(=O)CSc1ncc(S(=O)(=O)c2ccccc2)c(N)n1`, 790 s.

Turning to `CCCn1cnc2cc(CNC(=O)COc3ccc(Cl)cc3C)ccc21`, the RP-LC retention time stood at 692 s. `Cn1cc(-c2cc3n(n2)CCC(=O)N3CCCC(=O)N2CCN(c3ccccc3)CC2)c2ccccc21` came in with an RP-LC retention time of 859 s. `Cc1nc(-c2ccc3c(c2)n(CC(=O)NC2CCCCCC2)c(=O)n3C(C)C)no1` showed an RP-LC retention time of 841 s.

Turning to `CN(C)S(=O)(=O)c1ccc(C(=O)Nc2cccc([N+](=O)[O-])c2)cc1`, the RP-LC retention time was 858 s. To `O=C(CCc1cc2ccccc2[nH]c1=O)NCCN1CCCCCC1` belongs 595 s.
